Converted amounts (≈) assume the structure as drawn.
Legend:
Format in all cases: functional
Bacteroides fragilis [1] = assay: Antibacterial activity against Bacteroides fragilis isolate by agar dilution method
Bacteroides stercoris [2] = assay: Antibacterial activity against Bacteroides stercoris assessed as percent resistant isolates by agar dilution method; settings: pooled result: one value given for 4 cell lines, strains, targets or settings
Bacteroides ovatus [3] = assay: Antibacterial activity against Bacteroides ovatus assessed as percent resistant isolates by agar dilution method
[4] = test system: Parabacteroides distasonis; assay: Antibacterial activity against Bacteroides distasonis assessed as percent resistant isolates by agar dilution method
Bacteroides caccae [5] = assay: Antibacterial activity against Bacteroides caccae assessed as percent resistant isolates by agar dilution method
Phocaeicola vulgatus [6] = assay: Antibacterial activity against Bacteroides vulgatus assessed as percent resistant isolates by agar dilution method
Bacteroides uniformis [7] = assay: Antibacterial activity against Bacteroides uniformis assessed as percent resistant isolates by agar dilution method
[8] = test system: Bacteroides thetaiotaomicron; assay: Antibacterial activity against Bacteroides thetaiotaomicron assessed as percent resistant isolates by agar dilution method
Bacteroides fragilis [9] = assay: Antibacterial activity against Bacteroides fragilis assessed as percent resistant isolates by agar dilution method
Bacteroides stercoris [10] = assay: Antibacterial activity against Bacteroides stercoris isolate by agar dilution method
Parabacteroides merdae = assay: Antibacterial activity against Bacteroides merdae isolate by agar dilution method
Bacteroides eggerthii = assay: Antibacterial activity against Bacteroides eggerthii isolate by agar dilution method
Bacteroides sp. = assay: Antibacterial activity against Bacteroides spp. isolate by agar dilution method
Bacteroides ovatus [11] = assay: Antibacterial activity against Bacteroides ovatus isolate by agar dilution method
[12] = test system: Parabacteroides distasonis; assay: Antibacterial activity against Bacteroides distasonis isolate by agar dilution method
Phocaeicola vulgatus [13] = assay: Antibacterial activity against Bacteroides vulgatus isolate by agar dilution method
Bacteroides caccae [14] = assay: Antibacterial activity against Bacteroides caccae isolate by agar dilution method
Bacteroides uniformis [15] = assay: Antibacterial activity against Bacteroides uniformis isolate by agar dilution method
[16] = test system: Bacteroides thetaiotaomicron; assay: Antibacterial activity against Bacteroides thetaiotaomicron isolate by agar dilution method

Row | SMILES | MIC50 (Bacteroides fragilis [1]) [µg/mL] | MIC90 (Bacteroides fragilis [1]) [µg/mL] | Activity (Bacteroides stercoris [2]) [%] | Activity (Bacteroides ovatus [3]) [%] | Activity [4] [%] | Activity (Bacteroides caccae [5]) [%] | Activity (Phocaeicola vulgatus [6]) [%] | Activity (Bacteroides uniformis [7]) [%] | Activity [8] [%] | Activity (Bacteroides fragilis [9]) [%] | MIC50 (Bacteroides stercoris [10]) [µg/mL] | MIC90 (Bacteroides stercoris [10]) [µg/mL] | MIC50 (Parabacteroides merdae) [µg/mL] | MIC90 (Parabacteroides merdae) [µg/mL] | MIC50 (Bacteroides eggerthii) [µg/mL] | MIC90 (Bacteroides eggerthii) [µg/mL] | MIC50 (Bacteroides sp.) [µg/mL] | MIC90 (Bacteroides sp.) [µg/mL] | MIC50 (Bacteroides ovatus [11]) [µg/mL] | MIC90 (Bacteroides ovatus [11]) [µg/mL] | further results
1 | Cc1ncc([N+](=O)[O-])n1CCO [METRONIDAZOLE] | 1 (≈ 5.84 µM) | 2 (≈ 11.7 µM) | 0 | 0 | 0 | 0 | 0 | 0 | 0 | 0 | 0.5 (≈ 2.92 µM) | 2 (≈ 11.7 µM) | 0.5 (≈ 2.92 µM) | 2 (≈ 11.7 µM) | 0.5 (≈ 2.92 µM) | 2 (≈ 11.7 µM) | 0.5 (≈ 2.92 µM) | 2 (≈ 11.7 µM) | 1 (≈ 5.84 µM) | 2 (≈ 11.7 µM) | MIC50 [12]: 1 µg/mL (≈ 5.84 µM); MIC90 [12]: 2 µg/mL (≈ 11.7 µM); MIC50 (Phocaeicola vulgatus [13]): 1 µg/mL (≈ 5.84 µM); MIC90 (Phocaeicola vulgatus [13]): 2 µg/mL (≈ 11.7 µM); MIC50 (Bacteroides caccae [14]): 1 µg/mL (≈ 5.84 µM); MIC90 (Bacteroides caccae [14]): 2 µg/mL (≈ 11.7 µM); MIC50 (Bacteroides uniformis [15]): 1 µg/mL (≈ 5.84 µM); MIC90 (Bacteroides uniformis [15]): 2 µg/mL (≈ 11.7 µM); MIC50 [16]: 1 µg/mL (≈ 5.84 µM); MIC90 [16]: 2 µg/mL (≈ 11.7 µM)
2 | CCC[C@@H]1C[C@@H](C(=O)N[C@@H]([C@H]2O[C@H](SC)[C@H](O)[C@@H](O)[C@H]2O)[C@H](C)Cl)N(C)C1 [CLINDAMYCIN] | 2 (≈ 4.71 µM) | > 256 | 45.7 | 48.8 | 41.9 | 46.7 | 44.7 | 40.6 | 47.3 | 33.3 | 4 (≈ 9.41 µM) | > 256 | 4 (≈ 9.41 µM) | > 256 | 4 (≈ 9.41 µM) | > 256 | 4 (≈ 9.41 µM) | > 256 | 4 (≈ 9.41 µM) | > 256 | MIC50 [12]: 4 µg/mL (≈ 9.41 µM); MIC90 [12]: > 256 µg/mL; MIC50 (Phocaeicola vulgatus [13]): 4 µg/mL (≈ 9.41 µM); MIC90 (Phocaeicola vulgatus [13]): > 256 µg/mL; MIC50 (Bacteroides caccae [14]): 4 µg/mL (≈ 9.41 µM); MIC90 (Bacteroides caccae [14]): > 256 µg/mL; MIC50 (Bacteroides uniformis [15]): 2 µg/mL (≈ 4.71 µM); MIC90 (Bacteroides uniformis [15]): > 256 µg/mL; MIC50 [16]: 4 µg/mL (≈ 9.41 µM); MIC90 [16]: > 256 µg/mL
3 | C[C@@H](O)[C@H]1C(=O)N2C(C(=O)O)=C(SCCNC=N)C[C@H]12 [IMIPENEM ANHYDROUS] | 0.25 (≈ 0.835 µM) | 1 (≈ 3.34 µM) | 0 | 0 | 0 | 0 | 0 | 0 | 0.5 | 0.6 | 0.25 (≈ 0.835 µM) | 2 (≈ 6.68 µM) | 0.25 (≈ 0.835 µM) | 2 (≈ 6.68 µM) | 0.25 (≈ 0.835 µM) | 2 (≈ 6.68 µM) | 0.25 (≈ 0.835 µM) | 2 (≈ 6.68 µM) | 0.25 (≈ 0.835 µM) | 2 (≈ 6.68 µM) | MIC50 [12]: 1 µg/mL (≈ 3.34 µM); MIC90 [12]: 1 µg/mL (≈ 3.34 µM); MIC50 (Phocaeicola vulgatus [13]): 0.5 µg/mL (≈ 1.67 µM); MIC90 (Phocaeicola vulgatus [13]): 2 µg/mL (≈ 6.68 µM); MIC50 (Bacteroides caccae [14]): 0.5 µg/mL (≈ 1.67 µM); MIC90 (Bacteroides caccae [14]): 2 µg/mL (≈ 6.68 µM); MIC50 (Bacteroides uniformis [15]): 0.25 µg/mL (≈ 0.835 µM); MIC90 (Bacteroides uniformis [15]): 2 µg/mL (≈ 6.68 µM); MIC50 [16]: 0.5 µg/mL (≈ 1.67 µM); MIC90 [16]: 2 µg/mL (≈ 6.68 µM)
4 | CN(C)c1cc(NC(=O)CNC(C)(C)C)c(O)c2c1C[C@H]1C[C@H]3[C@H](N(C)C)C(O)=C(C(N)=O)C(=O)[C@@]3(O)C(O)=C1C2=O [TIGECYCLINE] | 1 (≈ 1.71 µM) | 8 (≈ 13.7 µM) | 10.5 | 7.2 | 8.3 | 16.1 | 6.1 | 9.1 | 7.5 | 6.5 | 1 (≈ 1.71 µM) | 8 (≈ 13.7 µM) | 1 (≈ 1.71 µM) | 8 (≈ 13.7 µM) | 1 (≈ 1.71 µM) | 8 (≈ 13.7 µM) | 1 (≈ 1.71 µM) | 8 (≈ 13.7 µM) | 2 (≈ 3.41 µM) | 8 (≈ 13.7 µM) | MIC50 [12]: 2 µg/mL (≈ 3.41 µM); MIC90 [12]: 8 µg/mL (≈ 13.7 µM); MIC50 (Phocaeicola vulgatus [13]): 0.5 µg/mL (≈ 0.854 µM); MIC90 (Phocaeicola vulgatus [13]): 8 µg/mL (≈ 13.7 µM); MIC50 (Bacteroides caccae [14]): 1 µg/mL (≈ 1.71 µM); MIC90 (Bacteroides caccae [14]): 16 µg/mL (≈ 27.3 µM); MIC50 (Bacteroides uniformis [15]): 1 µg/mL (≈ 1.71 µM); MIC90 (Bacteroides uniformis [15]): 8 µg/mL (≈ 13.7 µM); MIC50 [16]: 1 µg/mL (≈ 1.71 µM); MIC90 [16]: 8 µg/mL (≈ 13.7 µM)

From ChEMBL document CHEMBL1275453, “Resistance trends of the Bacteroides fragilis group over a 10-year period, 1997 to 2006, in Madrid, Spain” (2008)
